Test results reported in patent US10590143B2, “Herbicidally active (alkynyl-phenyl)-substituted cyclic dione compounds and derivatives thereof” (Syngenta Limited, priority 2013, dated 2020).

Tests used:
Assay in all cases: Biological Example 3 glasshouse assay for herbicidal activity, using various adjuvant systems
Assay type in all cases: in vivo
Details in all cases: post-emergence, 8 g/ha, 14 or 15 DAA; adjuvant 0.5% v/v + 1.0% AMS + 12.5% IPA: TEHP (A3-A7), Adigor (A8, P1, P2, P4), Hexamoll DINCH (A1)
[1] = tested on: Brachiaria decumbens (BRADC)
Protocol: (§1) • Materials and Methods • Herbicide Application: Post-emergence foliar spray application, 200 L/ha, usually one or two replicates for the weeds (depending on application rate), and two replicates for soybean. • Climate: Standard warm conditions (tropical), in glasshouse. Specifically, the glasshouse bay conditions are 24° C./18° C. day/night; 16/8 hours light/dark; 65% humidity. • Plants: The herbicidal application takes place at the following growth stages for plants which include inter alia one or more of the following plants (usually the herbicidal application takes place on at least the following plants: DIGSA, ELEIN, SETFA, ZEAMX, GLXMA Nikko, and GLXMA TMG133, and often also either BRADC or BRAPP): • Brachiaria decumbens (BRADC)—growth stage (GS) 12 or 13 (or GS 12)—or, if BRADC is not used, then usually Brachiaria platyphylla (BRAPP)—growth stage 12 or 13 • Digitaria sanguinalis (DIGSA)—growth stage 12 or 13 • Eleusine indica (ELEIN)—growth stage 12 or 13 • Setaria faberi (SETFA)—growth stage 12 or 13 • Echinochloa crus-galli (ECHCG)—growth stage 12 or 13 • Sorghum halepense (annual) (SORHA)—growth stage 12 or 13 • Panicum dichotomiflorum (PANDI)—growth stage 12 or 13 • Zea mays (ZEAMX, maize/corn, e.g. can occur as volunteer corn) cultivar “Garland”—growth stage 12 or 13 • Glycine max (GLXMA, soybean) cultivar “Nikko”—growth stage: 1st trifoliate • Glycine max (GLXMA, soybean) cultivar “TMG133”—which is Roundup Ready™ glyphosate-tolerant soybean cultivar TMG133 (typically available from Monsanto in Brazil)—growth stage: 1st trifoliate. • Herbicidal Compositions Tested:
(§2) Each test compound is applied with one of the following adjuvant systems (all percentages are final concentrations in the aqueous spray mixture): • Adjuvant system 1: 0.5% v/v Adigor™*, 1.0% v/v AMS (ammonium sulphate) and 12.5% v/v IPA (isopropyl alcohol). • Adjuvant system 2: 0.5% v/v Hexamoll™ DINCH**, 1.0% v/v AMS (ammonium sulphate) and 12.5% v/v IPA (isopropyl alcohol). • Adjuvant system 3: 0.5% v/v tris-(2-ethylhexyl)phosphate (“TEHP”), 1.0% v/v AMS (ammonium sulphate) and 12.5% v/v IPA (isopropyl alcohol). ***Adigor™ (currently available in many countries from Syngenta) is an emulsifiable concentrate which consists of: • (i) ethoxylated alcohols, which typically includes ethoxylated higher alcohols (e.g. ethoxylates of alcohols wherein the alcohols are within the range of C12-C22); and • (ii) a mixture of heavy aromatic hydrocarbons, which typically includes (e.g. includes 50% or more by weight of the heavy aromatic hydrocarbons of) a mixture of naphthalenes each of which is substituted by one or more alkyls wherein the alkyl(s) in total have 1-4 carbon atoms per naphthalene molecule (e.g. Solvesso 200 ND™); and • (iii) about 47% w/w and/or about 45% w/v (with respect to the emulsifiable concentrate) of methylated rapeseed oil (rapeseed oil methyl ester) (e.g. Agnique ME 18 RD-F™), as an adjuvant. **Hexamoll™ DINCH™ is 1,2-cyclohexane dicarboxylic acid di-isononyl ester
(§3) Seeds of the weed (including volunteer) plants, typically including inter alia Digitaria sanguinalis (DIGSA), Eleusine indica (ELEIN), Setaria faberi (SETFA), Zea mays (ZEAMX, corn), and sometimes also [either Brachiaria decumbens (BRADC) or Brachiaria platyphylla (BRAPP)], are sown in seed trays (troughs) containing clay loam soil (pH 7.0, 2.2% organic matter, “Trough Mix A”); and soybean seed is sown in pots containing the same soil with 3 soybean seedlings per pot. The plants are sprayed with the test herbicide when they reach the growth stages mentioned above.
(§4) The test herbicidal solutions are prepared by mixing the appropriate aliquots of the test substance(s) and one of the adjuvant systems indicated above*** in deionised water to give the desired treatment concentration.
(§5) The herbicidal application is made as a foliar spray, using a tracksprayer. Following the herbicidal application, the plants are watered twice per day for the duration of the test. […]

Eleusine indica (ELEIN) = tested on: Eleusine indica (ELEIN)
Protocol: as §1, §2, §3, §4, §5

[2] = tested on: Digitaria sanguinalis (DIGSA)
Protocol: as §1, §2, §3, §4, §5

Setaria faberi (SETFA) = tested on: Setaria faberi (SETFA)
Protocol: as §1, §2, §3, §4, §5

| SMILES | percentage control of (percentage phytotoxicity on) Brachiaria decumbens (BRADC) [1] [%] | percentage control of (percentage phytotoxicity on) Eleusine indica (ELEIN) (Eleusine indica (ELEIN)) [%] | percentage control of (percentage phytotoxicity on) Digitaria sanguinalis (DIGSA) [2] [%] | percentage control of (percentage phytotoxicity on) Setaria faberi (SETFA) (Setaria faberi (SETFA)) [%] |
| --- | --- | --- | --- | --- |
| COc1cc(C#CCl)cc(F)c1C1C(=O)C2CCC(C2)C1=O (centres unmarked) [Compound A8, 3-[4-(2-chloroethynyl)-2-fluoro-6-methoxy-phenyl]bicyclo[3.2.1]octane-2,4-dione] | 15 | 5 | 30 | 10 |
| CC#Cc1cc(F)c(C2=C(OC(=O)C(C)(C)C)C3CCC(C3)C2=O)c(OC)c1 (centres unmarked) [Compound P1] | – | – | 70 | – |
